# Measured values taken from US8318812B2, “Therapeutic agents for the treatment of lymphoid malignancies” (The Ohio State University Research Foundation, priority 2006, dated 2012).
# Key:
# [1] = tested on: MEC, Ramos, Raji, 697 and RS4-11 B cell lines; test: Annexin V/PI viability by flow cytometry in B cell lines; type: cell-based, Human; details: 0.6-10 uM FTY720; 24 and 48 hours
# Method: Cells: Blood was obtained from patients with B-cell CLL with informed consent under a protocol approved by the hospital internal review board. All patients examined in this series had immunophenotypically defined CLL as outlined by the modified 96 National Cancer Institute criteria. B-CLL cells were isolated from freshly donated blood using ficoll density gradient centrifugation (Ficoll-Paque Plus, Amershan Biosciences, Piscataway, N.J.). Isolated mononuclear cells were incubated in RPMI 1640 media (Gibco/Invitrogen, Carlsbad, Calif.) supplemented with 10% heat-inactivated fetal bovine serum (FBS, Hyclone Laboratories, Logan, Utah), 2 mM L-glutamine (Invitrogen, Carlsbad, Calif.), and penicillin (100 U/mL)/streptomycin (100 μg/ml) [Sigma-Aldrich, St. Louis] at 37° C. in an atmosphere of 5% CO2. Freshly isolated B-CLL cells were used in all experiments described herein. […]
# Analysis of cell viability and apoptosis: The cell viability was carried out by dual staining with Annexin V conjugated to flourescein-isothyocyanate (FITC) and Propidium iodide (PI) as described previously. Briefly, 1×10^6 cells were stained with Annexin V-FITC (BD Pharmingen) and Propidium iodide (BD Pharmingen) for 15 minutes in dark and analyzed by flow cytometry using a Beckman-Coulter EPICS XL cytometer (Beckman-Coulter, Miami, Fla.). […]
# [2] = tested on: AML cell lines; test: Annexin V/PI apoptosis assay in AML cell lines; type: cell-based; details: 48 hours
# Method: Cell cultures were exposed to vehicle control and increasing doses of FTY720 for 48 hours. Cells were then stained with Annexin V (AnnV) and propidium iodide (PI), and analyzed using routine flow cytometry. Percentage of viable cells (AnnV− PI−), cells undergoing apoptosis (AnnV+ PI−), and necrotic cells (AnnV+ PI+) are represented for each cell line studied in FIG. 10A.
smiles,measurement,setting,value
"CCCCCCCCc1ccc(CCC(N)(CO)CO)cc1.Cl [FTY720, 2-Amino-2-[2-(4-octylphenyl)ethyl]propane 1,3-diol hydrochloride]",viable cells (Annexin V-/PI-),[1],dose dependent inhibition of viable cells
same,apoptosis in AML cell lines,[2],induces apoptosis
